Several values for one entry are separate records, joined by “and”; a condition that tells them apart may be missing. Equal entries are not always repeated.
Key:
[1] = tested on: men with psychogenic male erectile dysfunction (MED); assay: Pilot Study #6, third phase: home use, reported success of intercourse (Sexual Function questionnaire); assay type: in vivo, human; conditions: for Reported Success by Tablet Strength: home use; for Reported Success, Overall: all doses, 20/29
From the text: The third phase, a home-use phase, lasted 5 weeks. During this phase, subjects attempted coitus at least once each week after taking a single APO tablet. After each attempt the subject and their partner completed a Sexual Function questionnaire (Table XVII).
During the third phase, subjects had recorded at baseline, their satisfaction, erection, number of attempts, and successful intercourse on a VAS scale. Evaluable subjects first recorded a success rate, then completed VAS for erection results and satisfaction with intercourse following take-home treatment. Success rate was calculated for mg as well as μg/kg body weight doses (males). Several evaluations of the data were made including the male and female responses to treatments. The overall average success rate is 69% with APO treatment which is much higher than the average baseline rate 28% (Tables XXI, XXII).

[2] = tested on: patients with psychogenic impotence
[3] = sublingual tablets 2.5 mg and 5 mg, seven evaluable patients

## CN1CCc2cccc3c2[C@H]1Cc1ccc(O)c(O)c1-3 [apomorphine]
[1]; Female group, 4 mg
  Reported Success by Tablet Strength: 5/7 (71.4%)
[1]; Female group, 8 mg
  Reported Success by Tablet Strength: 4/7 (57.1%)
[1]; Female group, 35-50 μg/kg
  Reported Success by Apomorphine Dosage: 3/5 (60.0%)
[1]; Female group, 50-74 μg/kg
  Reported Success by Apomorphine Dosage: 9/11 (81.8%)
[1]; Female group, 50-74 μg/kg, listed as APO
  Reported Success by Apomorphine Dosage: 82%
[1]; Female group, >74 μg/kg
  Reported Success by Apomorphine Dosage: 8/13 (61.5%)
[1]; Female group
  Reported Success, Overall: (69.0%)
[1]; Male group, 4 mg
  Reported Success by Tablet Strength: 5/7 (71.4%)
[1]; Male group, 8 mg
  Reported Success by Tablet Strength: 4/7 (57.1%)
[1]; Male group, 35-50 μg/kg
  Reported Success by Apomorphine Dosage: 4/5 (80.0%)
[1]; Male group, 50-74 μg/kg
  Reported Success by Apomorphine Dosage: 8/11 (72.7%)
[1]; Male group, 50-74 μg/kg, listed as APO
  Reported Success by Apomorphine Dosage: 80%
[1]; Male group, >74 μg/kg
  Reported Success by Apomorphine Dosage: 8/13 (61.5%)
[1]; Male group
  Reported Success, Overall: (69.0%)
[1]; take-home APO treatment, average baseline rate 28%
  overall average success rate: 69%
[2]; 2.5 mg dose, patients who failed testing
  yawns per session: one or two
[2]; 5 mg dose
  yawning responses per session: three to five
[2]; sublingual tablet 2.5 mg, the two successful patients
  adverse effects: did not produce adverse effects
[2]; sublingual tablet 5 mg
  adverse effects (nausea, diaphoresis, dizziness, blurred vision, facial flushing, drop in heart rate and blood pressure): produced adverse effects
[2]; [3]
  failures during lab testing: 71%
  successes (score of no less than 16) during lab testing: 28% and 29%
[2]; sublingual tablets 2.5 and 5 mg
  erectile response: produced erectile responses in some patients
[2]; sublingual tablets 2.5 and 5 mg, under the tongue
  time for sublingual tablets to dissolve: five
[2]; the two successful patients, 2.5 mg and 5 mg doses
  yawns: three to five
